Activity calls are given as the source filed them. How the calls were made is not given here.
System: CCRIS mutagenicity, Ames/micronucleus/aberration tests
Experiment: CCRIS mutagenicity studies
[1] = Test System: AMES SALMONELLA TYPHIMURIUM, Strain/Indicator: TA98, Metabolic Activation: NONE, Method: STANDARD PLATE
[2] = Test System: AMES SALMONELLA TYPHIMURIUM, Strain/Indicator: TA100, Metabolic Activation: NONE, Method: STANDARD PLATE

For `Cc1cc2ncccc2c2nc(N)n(C)c12`, the mutagenic call (End Point: IN VITRO MICRONUCLEUS, Test System: CHL/IU CELLS, Metabolic Activation: RAT, LIVER, S-9, PHENOBARBITAL AND 5,6-BENZOFLAVONE) was “active; positive”, the mutagenic call (Test System: AMES SALMONELLA TYPHIMURIUM, Strain/Indicator: TA98(1,8-DNP6), Metabolic Activation: RAT, LIVER, S-9, Method: STANDARD PLATE) was “inactive; negative” and the mutagenic call (Test System: AMES SALMONELLA TYPHIMURIUM, Strain/Indicator: TA98, Metabolic Activation: HAMSTER, LIVER, HEPATOCYTES, Method: STANDARD PLATE) was “active; positive”. The mutagenic call (Test System: AMES SALMONELLA TYPHIMURIUM, Strain/Indicator: TA98, Metabolic Activation: HUMAN, BLOOD, CYTOSOL, Method: PREINCUBATION) was “active; positive”, the mutagenic call (Test System: AMES SALMONELLA TYPHIMURIUM, Strain/Indicator: TA98, Metabolic Activation: NONE, Method: PREINCUBATION) was “inactive; negative” and the mutagenic call [1] was “inactive; negative”. The mutagenic call (Test System: AMES SALMONELLA TYPHIMURIUM, Strain/Indicator: TA98, Metabolic Activation: RAT, LIVER, HEPATOCYTES, AROCLOR 1254, Method: PREINCUBATION) was “active; positive”, the mutagenic call (Test System: AMES SALMONELLA TYPHIMURIUM, Strain/Indicator: TA98, Metabolic Activation: RAT, LIVER, HEPATOCYTES, Method: PREINCUBATION) was “active; positive” and the mutagenic call (Test System: AMES SALMONELLA TYPHIMURIUM, Strain/Indicator: TA98, Metabolic Activation: RAT, LIVER, HEPATOCYTES, Method: STANDARD PLATE) was “active; positive”. The mutagenic call (Test System: AMES SALMONELLA TYPHIMURIUM, Strain/Indicator: TA98, Metabolic Activation: RAT, LIVER, S-9, AROCLOR 1254, Method: PREINCUBATION) was “active; positive”, the mutagenic call (Test System: AMES SALMONELLA TYPHIMURIUM, Strain/Indicator: TA98, Metabolic Activation: RAT, LIVER, S-9, N-BENZYLIMIDAZOLE, Method: PREINCUBATION) was “active; positive” and the mutagenic call (Test System: AMES SALMONELLA TYPHIMURIUM, Strain/Indicator: TA98, Metabolic Activation: RAT, LIVER, S-9, Method: STANDARD PLATE) was “active; positive”. For the same molecule, the mutagenic call (Test System: AMES SALMONELLA TYPHIMURIUM, Strain/Indicator: TA98, Metabolic Activation: S-9, Method: STANDARD PLATE) was “active; positive”, the mutagenic call (Test System: AMES SALMONELLA TYPHIMURIUM, Strain/Indicator: TA98, Method: STANDARD PLATE) was “active; positive” and the mutagenic call (Test System: AMES SALMONELLA TYPHIMURIUM, Strain/Indicator: TA100, Metabolic Activation: NONE, Method: PREINCUBATION) was “inactive; negative”. For the same molecule, the mutagenic call [2] was “inactive; negative”, the mutagenic call (Test System: AMES SALMONELLA TYPHIMURIUM, Strain/Indicator: TA100, Metabolic Activation: RAT, LIVER, S-9, AROCLOR 1254, Method: PREINCUBATION) was “active; positive” and the mutagenic call (Test System: AMES SALMONELLA TYPHIMURIUM, Strain/Indicator: TA100, Metabolic Activation: RAT, LIVER, S=9, AROCLOR 1254, Method: PREINCUBATION) was “active; positive”. For the same molecule, the mutagenic call (Test System: AMES SALMONELLA TYPHIMURIUM, Strain/Indicator: TA100, Metabolic Activation: S-9, Method: STANDARD PLATE) was “active; positive”, the mutagenic call (Test System: CHINESE HAMSTER V-79, Strain/Indicator: V-79/6-THIOGUANINE, Metabolic Activation: HAMSTER, PANCREAS DUCT, EPITHELIAL CELLS) was “active; positive” and the mutagenic call (Test System: CHINESE HAMSTER V-79, Strain/Indicator: V-79/6-THIOGUANINE, Metabolic Activation: HUMAN, PANCREAS DUCT, EPITHELIAL CELLS) was “active; positive”. The mutagenic call (Test System: CHINESE HAMSTER V-79, Strain/Indicator: V-79/6-THIOGUANINE, Metabolic Activation: RAT, LIVER, HEPATOCYTES, AROCLOR 1254) was “active; positive”, the mutagenic call (Test System: UDS HAMSTER HEPATOCYTES, Strain/Indicator: THY INCORP, Metabolic Activation: NONE, Method: LIQUID SCINTILLATION COUNTING) was “active; positive” and the mutagenic call (Test System: UDS HUMAN HEPATOCYTES, Strain/Indicator: THY INCORP, Metabolic Activation: NONE, Method: AUTORADIOGRAPHY) was “active; positive”. The mutagenic call (Test System: UDS MOUSE HEPATOCYTES, Strain/Indicator: THY INCORP, Metabolic Activation: NONE, Method: AUTORADIOGRAPHY) was “active; positive”, the mutagenic call (Test System: UDS RAT HEPATOCYTES, Strain/Indicator: THY INCORP, Metabolic Activation: NONE, Method: AUTORADIOGRAPHY) was “active; positive” and the mutagenic call (Test System: UDS RAT HEPATOCYTES, Strain/Indicator: THY INCORP, Metabolic Activation: NONE, Method: LIQUID SCINTILLATION COUNTING) was “active; positive”.
With `COC(=O)C12C[C@@]1(C=O)C(C=O)=C[C@@H]1CC(C)(C)C[C@@H]12` (stereo partly drawn) the mutagenic call [1] was “active; positive”, the mutagenic call [2] was “active; positive” and the mutagenic call (Test System: AMES SALMONELLA TYPHIMURIUM, Strain/Indicator: TA2637, Metabolic Activation: NONE, Method: STANDARD PLATE) was “active; positive”.
With `O=[N+]([O-])c1cc([N+](=O)[O-])c2cccc3c2c1-c1ccccc1-3` the mutagenic call (Test System: AMES SALMONELLA TYPHIMURIUM, Strain/Indicator: TA98(1,8-DNP6), Metabolic Activation: NONE, Method: STANDARD PLATE) was “active; positive”, the mutagenic call (Test System: AMES SALMONELLA TYPHIMURIUM, Strain/Indicator: TA98(NR), Metabolic Activation: NONE, Method: STANDARD PLATE) was “active; positive” and the mutagenic call [1] was “active; positive”.

Reference: PubChem BioAssay AID1259407 (Chemical Carcinogenesis Research Information System (CCRIS), 2018)
